This note sets out measurements from PMC2712691, “Bio-Benchmarking of Electronic Nose Sensors” (PLoS ONE, 2009).

The target of this test is T1, dOR35a (Drosophila melanogaster, UniProt Q9V3Q2).
T1 construct: gene Or35a; pIB-DmOr35a transiently expressed in Sf9 cells
T1 sequence (Q9V3Q2 1-409): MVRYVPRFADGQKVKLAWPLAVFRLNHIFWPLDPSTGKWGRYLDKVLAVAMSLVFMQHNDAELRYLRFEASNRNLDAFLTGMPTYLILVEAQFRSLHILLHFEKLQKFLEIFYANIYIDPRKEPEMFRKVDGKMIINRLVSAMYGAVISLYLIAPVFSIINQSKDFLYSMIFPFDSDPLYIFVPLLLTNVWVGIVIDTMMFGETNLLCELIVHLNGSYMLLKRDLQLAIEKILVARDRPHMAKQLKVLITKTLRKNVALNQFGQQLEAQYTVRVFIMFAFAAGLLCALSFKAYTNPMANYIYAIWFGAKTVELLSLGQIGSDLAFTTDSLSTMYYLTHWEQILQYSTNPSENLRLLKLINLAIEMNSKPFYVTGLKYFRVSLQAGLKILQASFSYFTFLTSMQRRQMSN
The experiment in a line: Fluo4 calcium imaging of receptor transiently expressed in Sf9 cells, concentration-response. The format is cell-based.

Structures are written as SMILES.

A word on the EC50: it is the concentration needed to bring the measured effect to its halfway point. Take `CCCCCCCCO` [1-octanol]: the EC50 was determined as 22.7 nM.
Next, `C=CC(O)CCCCC` (centres unmarked) [1-octen-3-ol]: 3460 nM.
